Laboratory results: patent US12507721B2, “Ready-to-use parenteral nutrition formulation” (BAXTER INTERNATIONAL INC., priority 2021, dated 2025)
Blank lines part the entries; values can stand above or below the molecule they belong to.

Assays:
[1] = Storage of Glucose Batch 1 at 40° C./25% RH for 6 months; type: physicochemical; conditions: sterilization cycles of Example 7
Protocol: In a next step, the stability of vitamin B12 was examined in Glucose Batch 1 which seemed to be the most promising based on the results shown in Table 7. Accordingly, several bags were stored at 40° C./25% RH for 6 months (T6M). Batch Glucose 1 was analyzed at T6M to revisit the presence of vitamin B12 in either its cyanocobalamin or hydroxocobalamin form. In order to test the validity of the test, vitamins B1, B3 and B6 were tested together with vitamin B12 both after sterilization and then throughout shelf life.

[2] = Impact of DO on selenium stability; mix of 9 trace elements; type: physicochemical; conditions: sterilized samples stored at 40° C., FIG. 5
Protocol: The impact of oxygen seems of major importance in the stability of selenite containing trace element formulations. […] To confirm this hypothesis, a regression test was performed between Se assay results and log(dissolved oxygen results). Only sterilized samples stored at 40° C. were considered as the sterilization and storage at high temperature seem to both increase the Se degradation.
The presence of oxygen promotes selenite stability. To ensure that it is not deleterious to another TE the stability of a mix of the 9 TE of interest (i.e. Zn, Cu, Cr, Mo, Mn, Fe, I, F & Se) was evaluated at pH 2.2 with 200 mM of malic acid (to ensure iodide stability) and stored in a glass bottle (so containing about 3 ppm of dissolved oxygen). The solution was heat sterilized and stored 6 months at 40° C. or 5° C. (T6M 40° C. and T6M 5° C., respectively).

[3] = Selenium stability in trace element solutions with selenate, selenomethionine or selenite; conditions: for selenium concentration during storage: TE formulation pH 2.2, heat sterilized, conditions not optimized for DO, FIGS. 9-11
Protocol: (§1) Timepoint 0 corresponds to the results of TE dosage right after sterilization. […] Timepoints 1, 3 and 6 correspond to the results of TE dosage after 1 month, 3 months and 6 months storage at 40° C./25% RH.
as §1, §1
For the three tested solutions containing different forms of selenium, the selenium is mixed with other TE (Zn, Cu, Mn, F, I, Mo, Cr, Fe), which were introduced as chloride salts. The solutions were acidified to pH 2.2 using malic acid and underwent terminal heat sterilization prior to storage.

[4] = Vitamin stability in 35% glucose solution during sterilization and storage; type: physicochemical; conditions: for Unsterilized T0 concentration / T1M40° C. concentration / T3M40° C. concentration / Cycle 3 T0 concentration / T6M40° C. concentration / Cycle 4 T0 concentration: 35% glucose solution; for T1M40° C. concentration: 1 month at 40° C.; for T3M40° C. concentration: 3 months at 40° C.; for Cycle 3 T0 concentration: C0 = 25 minutes; for Cycle 3 T0 concentration / Cycle 4 T0 concentration: after sterilization; for T6M40° C. concentration: 6 months at 40° C., B12 value (*) is the sum of cyanocobalamin and hydroxocobalamin; for Cycle 4 T0 concentration: C0 = 19 minutes
Protocol: For testing the stability of vitamin B12 in formulation as they are typically used in parenteral nutrition, a 35% glucose solution, a 14.2% amino acid formulation such as found, for example, in Olimel N9E (Baxter), and a 20% lipid emulsion such as found in Clinoleic 20% (Baxter) were supplemented with different vitamin combinations which always included vitamin B12. KCl was added into the glucose solution to understand if it has an effect on the stability of vitamin B12. Vitamin B1 was introduced as thiamin HCl. Ascorbyl palmitate was added to the lipid emulsion formulation as a stabilizing agent due to its antioxidant properties. In addition, two separate micellar solutions (“Vit A” and “Vit B”, see Table 9) comprising certain vitamins to be assessed with regard to degradation (B3, B6, B8, B9, B12, C) but formulated with different excipients as micellization agents were tested for vitamin B12 stability. Vit A consisted of a solution of mixed micelles with ascorbyl palmitate as a potential stability enhancer. Vit B was formulated with a mix of polysorbates, PEG and sorbitol to form micelles. The micellar solutions were prepared by mixing, under high speed, a solution composed of glycocholic acid and lecithins dissolved in water. In case of Vit B, the glycocholic acid and lecithin were replaced by PEG and polysorbate. All formulations were provided in standard flexible containers and overpouched with an aluminum overpouch for subsequent sterilization. For an overview over formulations and conditions see Table 9.
All samples were submitted to two different sterilization technologies. Steam sterilization targeting a F0=8 min was used for large volumes (400/800 ml, Cycle 2) and for small volumes (25/50 ml, Cycle 1) as lined out in Table 9 above. The same samples were sterilized by water spray sterilization with a serial tower continuous sterilization equipment with two different exposure times (Cycles 3 (25 min.) and 4 (19 min.)).
The vitamin recovery was then compared between the different sterilization cycles and formulations to understand the impact of the formulation and the sterilization technology used on their respective short- and long-term stability. Therefore, after sterilization, the samples were stored at 40° C./25% RH for 6 months to evaluate the recovery of vitamin B12 at T1M, T3M and T6M. Besides, backup samples were stored at 5° C. Finally, some samples were also stored at 25° C./40% RH to provide for real time stability data.

[5] = Studies of vitamin B12 in lipid emulsions irrespective of oil source, pH or stabilizing agent; type: physicochemical
Protocol: (storage for 3 months at 40° C.), even though hydroxocobalamin seems to remain relatively stable for about 6 months at 40° C.

[6] = pediatric PN formulation stored at 25° C.; cited from earlier work
[7] = 25 ml, Cycle 1 steam sterilization
[8] = 800 ml, Cycle 2 steam sterilization
[9] = 800 ml, Cycle 3 water spray sterilization
[10] = 800 ml, Cycle 4 water spray sterilization

Molecule: O=[Se](O)O [selenite, sodium selenite]
- oxygen amount sufficient to ensure stability in the trace element formulation [2]: around 0.5 ppm
- stability after three months ([3]; TE solution pH 2.2 (malic acid), terminal heat sterilization, DO not strictly controlled, analysis stopped): lack of stability

Molecule: cyanocobalamin [B12 CC]
- detection of cyanocobalamin after 6 months ([4]; standard PN glucose solution, Cycles 1 and 2 (steam sterilization), FIG. 4): no cyanocobalamin can be detected
- detection of cyanocobalamin ([5]; T3M40° C. (storage for 3 months at 40° C.)): no more cyanocobalamin can be detected

Molecule: O=[Se](=O)(O)O [Selenate, sodium selenate]
- selenium concentration during storage [3]: remained stable

Molecule: O=C1O[C@H]([C@@H](O)CO)C(O)=C1O [vitamin C, ascorbic acid]
- time after which instability was presented [6]: 48 h

Molecule: C[Se]CC[C@H](N)C(=O)O [selenomethionine]
- selenium concentration during storage [3]: remained stable

Molecule: C/C1=C2/[N-][C@H]([C@H](CC(N)=O)[C@@]2(C)CCC(=O)NC[C@@H](C)OP(=O)([O-])O[C@H]2[C@@H](O)[C@@H](n3cnc4cc(C)c(C)cc43)O[C@@H]2CO)[C@]2(C)N=C(/C(C)=C3N=C(/C=C4N=C1[C@@H](CCC(N)=O)C\4(C)C)[C@@H](CCC(N)=O)[C@]\3(C)CC(N)=O)[C@@H](CCC(N)=O)[C@]2(C)CC(N)=O.[Co+3].[OH-] [B12 HC, hydroxocobalamin]
- time remaining relatively stable ([5]; at 40° C.): about 6 months

More lines, now with the values ahead:

- degradation during sterilization [1]: no significant degradation
Molecule: Cc1ncc(C[n+]2csc(CCO)c2C)c(N)n1 [Batch B1, thiamine]

- degradation during sterilization [1]: no significant degradation
- Unsterilized T0 concentration ([4]; 25 ml (Table 10A)): 6.40 mg/L
- T1M40° C. concentration [4, 7]: 6.40 mg/L
- T3M40° C. concentration [4, 7]: 6.50 mg/L
- Unsterilized T0 concentration ([4]; 800 ml (Table 10B)): 6.40 mg/L
- Unsterilized T0 concentration ([4]; 800 ml (Table 11A)): 6.61 mg/L
- Unsterilized T0 concentration ([4]; 800 ml (Table 11B)): 6.61 mg/L
- T1M40° C. concentration [4, 8]: 5.93 mg/L
- T3M40° C. concentration [4, 8]: 6.00 mg/L
- Cycle 3 T0 concentration [4, 9]: 6.23 mg/L
- T3M40° C. concentration [4, 9]: 6.10 mg/L
- T6M40° C. concentration [4, 9]: 6.04 mg/L
- Cycle 4 T0 concentration [4, 10]: 6.27 mg/L
- T3M40° C. concentration [4, 10]: 5.90 mg/L
- T6M40° C. concentration [4, 10]: 6.03 mg/L
Molecule: Cc1ncc(CO)c(CO)c1O [Batch B6, pyridoxine]

- degradation during sterilization [1]: no significant degradation
- Unsterilized T0 concentration ([4]; 25 ml (Table 10A)): 51.10 mg/L
- T1M40° C. concentration [4, 7]: 49.30 mg/L
- T3M40° C. concentration [4, 7]: 50.20 mg/L
- Unsterilized T0 concentration ([4]; 800 ml (Table 10B)): 51.10 mg/L
- Unsterilized T0 concentration ([4]; 800 ml (Table 11A)): 52.80 mg/L
- Unsterilized T0 concentration ([4]; 800 ml (Table 11B)): 52.80 mg/L
- T1M40° C. concentration [4, 8]: 50.60 mg/L
- T3M40° C. concentration [4, 8]: 51.20 mg/L
- Cycle 3 T0 concentration [4, 9]: 50.50 mg/L
- T3M40° C. concentration [4, 9]: 50.30 mg/L
- T6M40° C. concentration [4, 9]: 48.27 mg/L
- Cycle 4 T0 concentration [4, 10]: 50.40 mg/L
- T3M40° C. concentration [4, 10]: 51.00 mg/L
- T6M40° C. concentration [4, 10]: 49.35 mg/L
Molecule: NC(=O)c1cccnc1 [Batch B3, Nicotinamide]
